Measurements published in paper PMC10385162 (Viruses, 2023).
“And” between values parts separate entries of the source, which are not always exact repeats. Identical values can stand only once. Like-named read-outs stand apart in the source and are kept apart here.

Key:
[1] = molecular target: HIV-1 reverse transcriptase (RT)-associated RNase H (Human immunodeficiency virus type 1 group M subtype B, UniProt P03366); experiment: HIV-1 RT-associated RNase H inhibition assay; type: biochemical; conditions: for IC50 / IC50 HIV-1 RNase H: concentration required to reduce HIV-1 RT-associated RNase H activity by 50%, mean of three independent experiments ± SD; for Percentage of residual enzymatic activity at the highest concentration tested: HIV-1 RNase H
[2] = molecular target: SARS-CoV-2 nsp14/nsp10 ExoN (Severe acute respiratory syndrome coronavirus 2, UniProt P0DTD1); experiment: SARS-CoV-2 nsp14 exonuclease (ExoN) activity assay, HPLC, RNA22 substrate; type: biochemical; conditions: for inhibition at 100 µM: read-out: Inhibition of ExoN activity
[3] = molecular target: full-length SARS-CoV-2 nsp14 MTase (Severe acute respiratory syndrome coronavirus 2, UniProt P0DTD1); experiment: SARS-CoV-2 nsp14 N7-methyltransferase activity assay; type: biochemical; conditions: absence vs presence of inhibitor; GpppA substrate, [3H]-SAM
[4] = tested on: SARS-CoV-2 WA1/2020 strain; type: cell-based
SARS-CoV-2 WA1/2020 = experiment: Plaque reduction assay in Vero E6 ACE2 cells; type: cell-based; conditions: for EC50 fold higher compared to 1c: plaque reduction assay

Structure (SMILES): O=C(N/N=C/c1ccc(O)c([N+](=O)[O-])c1)c1cc2ccccc2cc1O [1a, (E)-N’-(4-Hydroxy-3-nitrobenzylidene)-3-hydroxy-2-naphthohydrazide]
- IC50 ([1]; read-out: IC50 HIV-1 RNase H): 69.6 ± 8.46 µM

Structure (SMILES): COc1cc(/C=N/NC(=O)c2cc3ccccc3cc2O)cc([N+](=O)[O-])c1O [1b, (E)-N′-(4-Hydroxy-5-methoxy-3-nitrobenzylidene)-3-hydroxy-2-naphthohydrazide]
- IC50 ([1]; read-out: IC50 HIV-1 RNase H): 7 to 8 µM and 7.16 µM

Structure (SMILES): O=C(N/N=C/c1cc(O)c(O)c([N+](=O)[O-])c1)c1cc2ccccc2cc1O [1c, (E)-N′-(3,4-Dihydroxy-5-nitrobenzylidene)-3-hydroxy-2-naphthohydrazide]
- IC50 ([1]; IC50 HIV-1 RNase H): 0.57 ± 0.04 µM
- IC50 ([2]; RNA22 substrate, HPLC): 2.2 µM
- Inhibition of ExoN activity ([2]; at 100 µM): complete inhibition
- Effect on nsp14 MTase activity (tritium incorporation) [3]: no significant differences
- Effect on virus titers ([4]; 12.5 µM, A549 ACE2+ cells, MOI 0.05): no measurable effect
- Reduction in virus titers ([4]; 25 µM, 24 h post-infection): 6.4 fold
- Reduction in virus titers ([4]; 25 µM, 48 h post-infection): 7.8 fold
- Reduction in virus titers ([4]; 50 µM, 24 h post-infection): 78.5 fold
- Reduction in virus titers ([4]; 50 µM, 48 h post-infection): 48.9 fold
- EC50 (SARS-CoV-2 WA1/2020; concentration required to reduce plaque number by 50%, 3 d, mean and SD of three independent experiments, read-out: EC50 anti-SARS-CoV-2 activity by plaque reduction assay): 10.23 ± 0.01 µM

Structure (SMILES): O=C(N/N=C/c1cc(O)ccc1O)c1cc2ccccc2cc1O [1d]
- IC50 ([1]; read-out: IC50 HIV-1 RNase H): 35.9 ± 8.6 µM

Structure (SMILES): COc1ccc(/C=N/NC(=O)c2cc3ccccc3cc2O)c(O)c1O [1e, (E)-N’-(2,3-Dihydroxy-4-methoxybenzylidene)-3-hydroxy-2-naphthohydrazide]
- IC50 ([1]; read-out: IC50 HIV-1 RNase H): 1.02 ± 0.15 µM

Structure (SMILES): O=C(N/N=C/c1ccc(O)c(O)c1O)c1cc2ccccc2cc1O [1f]
- IC50 ([1]; read-out: IC50 HIV-1 RNase H): 0.93 ± 0.24 µM

Structure (SMILES): COc1ccc(/C=N/NC(=O)c2cc3ccccc3cc2O)cc1O [1g]
- Percentage of residual enzymatic activity at the highest concentration tested [1]: 84%
- IC50 ([1]; read-out: IC50 HIV-1 RNase H): > 100 µM

Structure (SMILES): O=C(N/N=C/c1ccc(O)cc1O)c1cc2ccccc2cc1O [1h]
- IC50 ([1]; read-out: IC50 HIV-1 RNase H): 36.4 ± 10.5 µM

Structure (SMILES): CN(C)c1ccc(/C=N/NC(=O)c2cc3ccccc3cc2O)cc1 [1i]
- IC50 ([1]; read-out: IC50 HIV-1 RNase H): 27.5 ± 2.65 µM

Structure (SMILES): CC(=O)Nc1ccc(/C=N/NC(=O)c2cc3ccccc3cc2O)cc1 [1j]
- Percentage of residual enzymatic activity at the highest concentration tested [1]: 91%
- IC50 HIV-1 RNase H [1]: inactive
- IC50 ([1]; read-out: IC50 HIV-1 RNase H): > 100 µM

Structure (SMILES): CCN(CC)c1ccc(/C=N/NC(=O)c2cc3ccccc3cc2O)cc1 [1k]
- IC50 ([1]; read-out: IC50 HIV-1 RNase H): 7 to 8 µM and 7.94 µM

Structure (SMILES): CN1CCN(c2ccc(/C=N/NC(=O)c3cc4ccccc4cc3O)cc2)CC1 [1l, (E)-N’-[4-(N-Methylpiperazinyl)benzylidene]-3-hydroxy-2-naphthohydrazide]
- Percentage of residual enzymatic activity at the highest concentration tested [1]: 70%
- IC50 HIV-1 RNase H [1]: inactive
- IC50 ([1]; read-out: IC50 HIV-1 RNase H): > 100 µM
- melting point: 256 to 257 °C

Structure (SMILES): O=C(N/N=C/c1cc(O)c(O)c([N+](=O)[O-])c1)c1ccccc1O [2a, (E)-N′-(3,4-Dihydroxy-5-nitrobenzylidene)-2-hydroxybenzohydrazide]
- IC50 ([1]; IC50 HIV-1 RNase H): 14 ± 0.97 µM
- inhibition at 100 µM [2]: ~65%
- EC50 fold higher compared to 1c (SARS-CoV-2 WA1/2020): 4.3 fold
- melting point: 275 °C (dec.)

Structure (SMILES): O=C(N/N=C/c1cc(O)c(O)c([N+](=O)[O-])c1)c1cccc(F)c1 [2b, (E)-N′-(3,4-Dihydroxy-5-nitrobenzylidene)-3-fluorobenzohydrazide]
- IC50 ([1]; IC50 HIV-1 RNase H): 15.2 ± 1.35 µM
- inhibition at 100 µM [2]: ~53%
- EC50 fold higher compared to 1c (SARS-CoV-2 WA1/2020): 3.4 fold
- melting point: 251 to 252 °C (dec.)

Structure (SMILES): O=C(N/N=C/c1cc(O)c(O)c([N+](=O)[O-])c1)c1cccnc1 [2c, (E)-N′-(3,4-Dihydroxy-5-nitrobenzylidene)-nicotinoylhydrazide]
- IC50 ([1]; IC50 HIV-1 RNase H): 24.7 ± 3.89 µM
- inhibition at 100 µM [2]: ~37%
- EC50 anti-SARS-CoV-2 activity by plaque reduction assay (SARS-CoV-2 WA1/2020; concentration required to reduce plaque number by 50%, 3 d, mean and SD of three independent experiments): inactive
- melting point: 250 to 251 °C (dec.)

Structure (SMILES): O=C(N/N=C/c1ccc(O)c(O)c1)c1cc2ccccc2cc1O [Dynasore, (E)-N′-(3,4-dihydroxybenzylidene)-3-hydroxy-2-naphthohydrazide, reference compound]
- IC50 ([1]; read-out: IC50 HIV-1 RNase H): 3.1 ± 0.52 µM

Structure (SMILES): CCOC(=O)C(=O)CC(=O)/C=C/c1cccn1Cc1ccc(F)cc1 [RDS1643, reference compound]
- IC50 ([1]; read-out: IC50 HIV-1 RNase H): 10.8 ± 5.2 µM
